Residues, ends and D or L forms follow the SMILES beside them. *: point of attachment. Cbz = O=C(OCc1ccccc1)*; CH2F = FC*

The subject of one test is human primary monocytes. As to conditions: literature (Jacquel et al., Blood 2009, Sci Reports 2018); cited from earlier work.
In a further test the target is caspase-8 (Homo sapiens, UniProt Q14790). In words: Recombinant caspase-8 activity in vitro (Ac-IETD-AMC substrate). Type of test: biochemical. Also noted: using active recombinant proteins of caspase-8 and caspase-3; purchased Enzo life sciences ALX-201-062. As to conditions: recombinant caspase-8, Ac-IETD-AMC. An excerpt: FIG. 4. […] (A) Measures of caspase-8 activity (IETD-AMC). IETD-CHO treatment is used as positive control in the in vitro assay. The results are expressed as A.U./min and represent the mean of 3 independent experiments realized in duplicate (B) Measures of caspase-3 activity (DEVD-AMC). DEVD-CHO is used as positive control in the in vitro assay. The results are expressed as A.U./min and represent the mean of 3 independent experiments realized in duplicate. Human CSF-1 was purchased from Miltenyi (130-096-493). […] Mouse caspase-8 was from R&D Systems (AF705). HRP-conjugated rabbit anti-goat was purchased from Dako ([…]) and HRP-conjugated goat anti-rabbit was from Cell Signaling (5127). Active recombinant caspase-8 (ALX-201-062) and -3 (ALX-201-059) were from Enzo life sciences. […] Each assay (in triplicate) was performed with 10 μg of protein prepared from control or stimulated cells. […] Enzyme activities were expressed in arbitrary units (A.U.) per min and per mg of proteins. The same protocol was used with 0.25 units of active recombinant caspase-8 (Enzo, ALX-201-062) or -3 (Enzo, ALX-201-059) in each triplicate.
Chain of caspase-8 (Q14790 217-374 limits assumed): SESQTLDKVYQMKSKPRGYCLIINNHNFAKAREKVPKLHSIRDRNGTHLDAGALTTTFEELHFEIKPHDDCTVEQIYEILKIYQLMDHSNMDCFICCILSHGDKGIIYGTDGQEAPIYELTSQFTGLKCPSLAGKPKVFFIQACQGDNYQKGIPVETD
Chain of caspase-8 (Q14790 385-479 limits assumed): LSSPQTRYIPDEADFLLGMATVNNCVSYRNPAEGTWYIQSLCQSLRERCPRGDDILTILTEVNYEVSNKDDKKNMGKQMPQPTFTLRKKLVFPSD

In the case of `COC(=O)C[C@H](NC(=O)[C@H](C)NC(=O)[C@@H](NC(=O)OCc1ccccc1)C(C)C)C(=O)CF` [z-VAD-fmk] (Cbz-Val-Ala-Asp(OMe)-CH2F), the “effect on CSF-1-induced monocyte differentiation” value with human primary monocytes is “inhibits”. Consider `CC[C@H](C)[C@H](NC(C)=O)C(=O)N[C@@H](CCC(=O)O)C(=O)N[C@H](C(=O)N[C@H](C=O)CC(=O)O)[C@@H](C)O` [Ac-IETD-CHO] (Ac-IETD-aldehyde), for which the IC50 (commonly the concentration that inhibits the measured activity by half) at caspase-8 stood at 15 nM.
